According to US12059682B2, “Method for isolation and morphological analysis of cells” (EzDiaTech Inc., priority 2018, dated 2024):
Values after ≈ are worked out from the molar mass of the structure shown.

Assays:
[1] = test system: methicillin-resistant Staphylococcus aureus (MRSA); assay: Rapid antibiotic susceptibility test with microwell-patterned hydrogel structures, running time 4 hours; assay type: cell-based; conditions: rapid method, running time 4 hours, read-out: minimum inhibitory concentration (MIC)
Experimental: In the case of the Streptomyces atratus (spore-type actinomycetes) cultures, the final cell concentration of the wells was controlled at 7.5×10^7 CFU/mL with tryptic soy broth (TSB, Sparks, MD) and growth was at 28° C. For the E. coli ATCC 25922, Staphylococcus aureus ATCC 29213, and methicillin resistant Staphylococcus aureus cultures, the initial concentration of bacterial cells injected into each well was set to 3×10^8 CFU/mL with Mueller-Hinton broth (MHB, Fluka Analytical). In order to adjust the concentration of antibiotics, ampicillin (Sigma-Aldrich) and chloramphenicol (Sigma-Aldrich), a two-fold serial dilution method was used. After that, 227.5 μL (91% v/v) of Mueller-Hinton broth (MHB, Fluka Analytical), 2.5 μL (1% v/v) of the antibiotics, and 20 μL (8% v/v) of bacterial cells were mixed and growth was monitored at 37° C.

[2] = test system: methicillin-resistant Staphylococcus aureus (MRSA); assay: Conventional antibiotic susceptibility test using turbidity, running time 18-24 hours; assay type: cell-based; conditions: conventional method using turbidity, running time 18-24 hours, read-out: minimum inhibitory concentration (MIC)
From the text: Although numerous AST approaches have been studied, molecular and cell culturing systems are typical. The molecular AST method can obtain results quickly, in just a few hours, but can be adopted only in restrictive conditions with analytical equipment such as PCR machine and requires much more research to be used widely in clinical applications. In contrast with the molecular method, the cell culturing system is accurate and most used in the clinical arena, so it is regarded as the standard AST system. The most commonly employed AST process in the cell culturing system is the liquid microdilution method. This traditional AST system requires 18˜24 hours because the liquid microdilution method determines the minimum inhibitory concentration (MIC) of the relevant antibiotics by identifying a change in turbidity of culture wells. The turbidity is indirectly measured by optical density (OD) coming from cell growth, which is proportional to the concentration of the bacterial cells in the culture well. However, the OD evaluation is not sensitive to the bacterial cell population expansion when the concentration of the bacterial cells is conspicuously low. Thus, it needs 18-24 hours to accurately distinguish whether the bacterial cells grow or not under particular concentrations of antibiotics.

[3] = test system: S. aureus ATCC 29213; conditions: cited from earlier work
[4] = test system: Staphylococcus aureus (S. aureus) ATCC 29213; assay: Rapid antibiotic susceptibility test with microwell-patterned hydrogel in 96 well plate, time-lapse imaging; assay type: cell-based
Experimental: (§1) FIG. 2 is a schematic diagram illustrating a technique for dissociating cell colonies into cells at the level of individual cells and continuously observing the morphological changes of the isolated single cells by utilizing a hydrogel structure according to one embodiment of the present disclosure. Referring to (a) of FIG. 2, a conventional 96 well plate is prepared, and thereafter, a dried microwell-patterned hydrogel is inserted into each well. Referring next to (b) of FIG. 2, a cell culture medium containing bacterial cells, nutrients and antibiotics is introduced into each well containing the dry microwell-patterned hydrogel. At the initial stage of introduction, the bottom microwells of the microwell-patterned hydrogel are not yet seated on the base of the well and the microwell-patterned hydrogel is slightly floating. Thus, the bacterial cells are free to move in and out of each microwell pattern.
(§2) Referring to (c) of FIG. 2, several or tens of minutes after the introduction, the microwell-patterned hydrogel swells and approaches the inner wall of the well. As a result, the top of the microwell-patterned hydrogel is in close contact with the inner sidewall of the well and the bottom of the microwell-patterned hydrogel is seated on and remains attached to the base of the well. At this time, the individual bacterial cell entering the space of each bottom microwell pattern of the microwell-patterned hydrogel is not free to move any further in and out of the microwell pattern and is isolated in the microwell-patterned area due to the pressure of the swollen hydrogel. In a state in which the hydrogel is fully expanded, continuous bacterial morphological changes can be observed after several hours by time-lapse imaging through an objective lens of the optical measurement system. As a result, time-lapse images of the individual bacterial cells can be obtained.
(§3) In the case of the Streptomyces atratus (spore-type actinomycetes) cultures, the final cell concentration of the wells was controlled at 7.5×10^7 CFU/mL with tryptic soy broth (TSB, Sparks, MD) and growth was at 28° C. […] After that, 227.5 μL (91% v/v) of Mueller-Hinton broth (MHB, Fluka Analytical), 2.5 μL (1% v/v) of the antibiotics, and 20 μL (8% v/v) of bacterial cells were mixed and growth was monitored at 37° C.
(§4) In this example, the Clinical Laboratory Standard Institute (CLSI) standard strains, Escherichia coli (E. coli) ATCC 25922 and Staphylococcus aureus (S. aureus) ATCC 29213 were tested with various concentrations of ampicillin and chloramphenicol to determine the minimum inhibitory concentration (MIC) values of the antibiotics. […] The cell growth images were recorded every hour for four hours to observe the change in cell number and morphological change to indicate growth.

[5] = test system: Escherichia coli (E. coli) ATCC 25922; assay: as above; assay type: cell-based
Experimental: as §1, §2, §3, §4

[6] = test system: E. coli ATCC 25922; conditions: cited from earlier work

Row | SMILES | MIC [1] | MIC [2] | CLSI minimum inhibitory concentration (MIC) range [3] | concentration at which bacterial cells could not divide or grow ([4]; S. aureus, optical microscopic images, FIG. 8 (b)) | concentration at which cells could not divide and showed filamentary growth ([5]; E. coli, optical microscopic images, FIG. 8 (a)) | CLSI minimum inhibitory concentration (MIC) range [6] | MIC ([4]; Staphylococcus aureus, ATCC29213, 4 h, S. aureus ATCC 29213, hydrogel device, images every hour for four hours, 37° C., read-out: minimum inhibitory concentration (MIC)) | MIC ([5]; Escherichia coli, ATCC25922, 4 h, E. coli ATCC 25922, hydrogel device, images every hour for four hours, 37° C., read-out: minimum inhibitory concentration (MIC))
1 | CC1(C)S[C@@H]2[C@H](NC(=O)[C@H](N)c3ccccc3)C(=O)N2[C@H]1C(=O)O [ampicillin] | 64 µg/mL (≈ 183 µM) | 64 µg/mL (≈ 183 µM) | 0.5 to 2 µg/mL | ≥ 2 µg/mL | ≥ 2 µg/mL | 2 to 8 µg/mL |  | 
2 | O=C(N[C@H](CO)[C@H](O)c1ccc([N+](=O)[O-])cc1)C(Cl)Cl [chloramphenicol] |  |  | 2 to 8 µg/mL |  |  | 2 to 8 µg/mL | 4 µg/mL (≈ 12.4 µM) | 8 µg/mL (≈ 24.8 µM)
